Our source for the EC50 and melting point values is PMC9026082, “Madecassic Acid—A New Scaffold for Highly Cytotoxic Agents” (International Journal of Molecular Sciences, 2022).

Each structure is given as a SMILES string. Counter-ions that a name gives are not always drawn.

Data set [1] relates to HT29 (colorectal carcinoma). Kind of data set: SRB cytotoxicity assay, HT29. Format: cell-based, human. The note with it: Homo sapiens, HT-29, 72 h of treatment, cut-off 30 μM. An excerpt:
(§1) To assess their cytotoxicity parent, triterpenoic acids 1–3, their acetates 4–6, the amides 7–18, as well as the respective rhodamine B conjugates 19–24 were subjected to SRB assays employing several human tumor cell lines (A375, HT29, MCF-7, A2780, and HeLa) as well as non-malignant fibroblasts (NIH 3T3).
(§2) A detailed description of materials and methods can be found in the Supplementary Materials File. For biological screening, the cell lines were obtained from ATCC: A375 (CRL-1619), HT29 (HTB-38), MCF7 (HTP-22), A2780 (HTP-77), HeLa (CCL-2), and NIH 3T3 (CRL-1573) ^13C NMR spectra (Supplementary Materials) were recorded as APT spectra showing CH and CH3 groups as positive signals and CH2 groups and quaternary carbons as negative signals. […]
(§3) 2. Cytotoxicity assay (SRB assay)
(§4) The cell lines were obtained from Department of oncology (Martin-Luther-University Halle Wittenberg). Cultures were maintained as monolayers in RPMI 1640 medium with L-glutamine (Capricorn Scientific GmbH, Ebsdorfergrund, Germany) supplemented with 10% heat inactivated fetal bovine serum (Sigma -Aldrich Chemie GmbH, Steinheim, Germany) and penicillin/streptomycin (1%, Capricorn Scientific GmbH, Ebsdorfergrund, Germany) at 37 °C in a humidified atmosphere with 5% CO 2.
(§5) The cytotoxicity of the compounds was eva luated using the sulforhodamine -B (Kiton-Red S, ABCR) micro culture colorimetric assay using […] in 96 -well plates with the seeding of the cells on day 0 applying appropriate cell densities to prevent confluence of the cells during the period of the experiment. On day 1, the cells were treated with six di fferent concentrations (1, 3, 7, 12, 20 and 30 μM); thereby, the final concentration of DMSO was always < 0.5%, generally regarded as non-toxic to the cells. On day 4, the supernatant medium was discarded; the cells were fixed with 10 % trichloroacetic acid. After another day at 4 °C, the cells were washed in a strip washer and dyed with the SRB solution (100 μL, 0.4% in 1% acetic acid) for about 20 min to be followed by washing of the plates (four times, 1% acetic acid) and air -drying […]
(§6) overnight. Furthermore, tris base solution (200 μL, 10 mM) was added to each well and absorbance was measured at λ = 570 nm employing a reader (96 wells, Tecan Spectra, Crailsheim, Germany). The EC50 values were averaged from three independent experiments performed each in triplicate calculated from semi logarithmic dose response curves applying a non-linear four-parameter Hills-slope equation (GraphPad Prism5; variables top and bottom were set to 100 and 0, respectively).
In general terms: The SRB assay estimates cell density from bound dye.

The subject of data set [2] is MCF7 (breast adenocarcinoma). Kind of data set: SRB cytotoxicity assay, MCF7. The note with it: Homo sapiens, MCF7, 72 h of treatment, cut-off 30 μM. Format: cell-based, human.
Excerpt: as §1, §2, §3, §4, §5, §6

In data set [3] the test system is A2780 (ovarian carcinoma). The experiment in a line: SRB cytotoxicity assay, A2780. Type of data set: cell-based, human. The note with it: Homo sapiens, A2780; SRB assay, 72 h of treatment; cut-off 30 μM.
Excerpt: as §1, §2, §3, §4, §5, §6

The subject of data set [4] is NIH 3T3 (non-malignant fibroblasts). The experiment in a line: SRB cytotoxicity assay, NIH 3T3. The note with it: Mus musculus, NIH3T3, 72 h of treatment, cut-off 30 μM. Format: cell-based.
Excerpt: as §1, §2, §3, §4, §5, §6

Data set [5] concerns A375 (melanoma). Kind of data set: SRB cytotoxicity assay, A375. Type of data set: cell-based, human. The note with it: 72 h of treatment, cut-off 30 μM.
Excerpt: as §1, §2, §3, §4, §5, §6

Turning to `COc1cccc2c1C(=O)c1c(O)c3c(c(O)c1C2=O)C[C@@](O)(C(=O)CO)C[C@@H]3O[C@H]1C[C@H](N)[C@H](O)[C@H](C)O1` [DX, Doxorubicin, reference compound], the EC50 came to 900 ± 200 nM in data set [1], 1100 ± 300 nM in data set [2], 20 ± 10 nM in data set [3] and 1.7 ± 0.3 µM in data set [4].

`CCN(CC)c1ccc2c(-c3ccccc3C(=O)N3CCN(C(=O)[C@]45CC[C@@H](C)[C@H](C)[C@H]4C4=CC[C@@H]6[C@@]7(C)C[C@@H](OC(C)=O)[C@H](OC(C)=O)[C@@](C)(COC(C)=O)[C@@H]7[C@H](O)C[C@@]6(C)[C@]4(C)CC5)CC3)c3ccc(=[N+](CC)CC)cc-3oc2c1` (as salt: chloride) [Compound 23, N-{6-Diethylamino-9-[2-({4[ (2α,3β,4α,6β)-2,3,23-tris(acetyloxy)-6-hydroxy-28-oxours-12-en-28-yl)-1-piperazinyl]carbonyl]phenyl]-3H-xanthen-3-ylidene)-N-ethylethanaminium Chloride] registered a melting point of 228 to 233 °C.

Take `CC(=O)OC[C@@]1(C)[C@@H]2[C@H](O)C[C@]3(C)[C@H](CC=C4[C@@H]5[C@@H](C)[C@H](C)CC[C@]5(C(=O)N5CCCNCC5)CC[C@]43C)[C@@]2(C)C[C@@H](OC(C)=O)[C@@H]1OC(C)=O` [Compound 18, (2α,3β,4α,6β) 2,3,23-Tris(acetyloxy)-N-(homopiperazinyl)-6-hydroxyurs-12-en-28-amide]: the melting point was in the range of 146.5 to 150.5 °C.

As to `CC(=O)OC[C@@]1(C)[C@@H]2[C@H](O)C[C@]3(C)[C@H](CC=C4[C@@H]5[C@@H](C)[C@H](C)CC[C@]5(C(=O)N5CCNCC5)CC[C@]43C)[C@@]2(C)C[C@@H](OC(C)=O)[C@@H]1OC(C)=O` [Compound 17, (2α,3β,4α,6β) 2,3,23-Tris(acetyloxy)-N-(piperazinyl)-6-hydroxyurs-12-en-28-amide], the melting point lay in the range of 133 to 138 °C.

Take `CC(=O)O[C@H]1CC[C@]2(C)[C@H]3CC=C4[C@@H]5CC(C)(C)CC[C@]5(C(=O)N5CCCNCC5)CC[C@@]4(C)[C@]3(C)CC[C@H]2[C@]1(C)C=O` [Compound 10, (3β,4α) 3-Acetyloxy-N-(homopiperazinyl)-23-oxo-olean-12-en-28-amide]: the melting point fell in the range of 176 to 179 °C.

In the case of `CC(=O)OC[C@@]1(C)[C@@H]2CC[C@]3(C)[C@H](CC=C4[C@@H]5CC(C)(C)CC[C@]5(C(=O)Nc5ccccc5)CC[C@]43C)[C@@]2(C)CC[C@@H]1OC(C)=O` [Compound 12, (3β,4α) 3,23-Bis(acetyloxy)-N-(phenyl)-olean-12-en-28-amide], the melting point was in the range of 210 to 214 °C. The compound further registered an EC50 in data set [5] of 600 ± 200 nM. In data set [5] (Homo sapiens, A-375, 72 h), this compound showed an EC50 of 660 nM. The compound also yielded a concentration giving a half-maximal response (EC50) in data set [1] of 1900 ± 600 nM. In addition, the half-maximal effective concentration (EC50) in data set [2] came to 1900 ± 100 nM. Moreover, in data set [3], the EC50 came to 800 ± 200 nM. Besides, the EC50 in data set [4] was > 30 µM.

For `CCN(CC)c1ccc2c(-c3ccccc3C(=O)N3CCCN(C(=O)[C@]45CCC(C)(C)C[C@H]4C4=CC[C@@H]6[C@@]7(C)CC[C@H](OC(C)=O)[C@@](C)(COC(C)=O)[C@@H]7CC[C@@]6(C)[C@]4(C)CC5)CC3)c3ccc(=[N+](CC)CC)cc-3oc2c1` (as salt: chloride) [Compound 22], the melting point is 243 to 248 °C.

In turn, `CC(=O)O[C@H]1CC[C@]2(C)[C@H]3CC=C4[C@@H]5CC(C)(C)CC[C@]5(C(=O)N5CCNCC5)CC[C@@]4(C)[C@]3(C)CC[C@H]2[C@]1(C)C=O` [Compound 9, (3β,4α) 3-Acetyloxy-N-(piperazinyl)-23-oxo-olean-12-en-28-amide] came in with a melting point of 150 to 154 °C.

On to `CC(=O)OC[C@@]1(C)[C@@H]2CC[C@]3(C)[C@H](CC=C4[C@@H]5CC(C)(C)CC[C@]5(C(=O)N5CCCNCC5)CC[C@]43C)[C@@]2(C)CC[C@@H]1OC(C)=O` [Compound 14, (3β,4α)3,23-Bis(acetyloxy)-N-(homopiperazinyl)-olean-12-en-28-amide], for which the melting point was in the range of 176 to 180 °C.

`CC(=O)O[C@H]1CC[C@]2(C)[C@H]3CC=C4[C@@H]5CC(C)(C)CC[C@]5(C(=O)Nc5ccccc5)CC[C@@]4(C)[C@]3(C)CC[C@H]2[C@]1(C)C=O` [Compound 8, (3β,4α) 3-Acetyloxy-N-(phenyl)-23-oxo-olean-12-en-28-amide] returned a melting point of 150 to 152 °C. In data set [5] (Homo sapiens, A-375, 72 h), this compound yielded an EC50 of 7900 ± 3300 nM. Further, the concentration giving a half-maximal response (EC50) in data set [1] was > 30000 nM. The EC50 in data set [2] was > 30000 nM. Moreover, the EC50 in data set [3] came to 19900 ± 1400 nM. Further, the EC50 in data set [4] was > 30 µM.

For `CCN(CC)c1ccc2c(-c3ccccc3C(=O)N3CCCN(C(=O)[C@]45CCC(C)(C)C[C@H]4C4=CC[C@@H]6[C@@]7(C)CC[C@H](OC(C)=O)[C@@](C)(COC(C)=O)[C@@H]7CC[C@@]6(C)[C@]4(C)CC5)CC3)c3ccc(=[N+](CC)CC)cc-3oc2c1` [Compound 22], the EC50 is 31 ± 7 nM in data set [5] (Homo sapiens, A-375, 72 h); 83 ± 20 nM in data set [1]; 86 ± 10 nM in data set [2]; 18 ± 1 nM in data set [3]; 0.441 ± 0.12 µM in data set [4].

In turn, `CC(=O)OC[C@@]1(C)[C@@H]2CC[C@]3(C)[C@H](CC=C4[C@@H]5CC(C)(C)CC[C@]5(C(=O)NCc5ccccc5)CC[C@]43C)[C@@]2(C)CC[C@@H]1OC(C)=O` [Compound 11, (3β,4α) 3,23-Bis(acetyloxy)-N-(benzyl)-olean-12-en-28-amide] registered a melting point of 210 to 214 °C. The compound further came in with an EC50 in data set [5] (Homo sapiens, A-375, 72 h) of 1100 ± 600 nM. This compound came in with an EC50 in data set [1] of 3800 ± 700 nM. In data set [2], a half-maximal response (EC50) required 3400 ± 400 nM. The same compound had an EC50 in data set [3] of 1300 ± 300 nM. In addition, the EC50 in data set [4] was > 30 µM.

`CC(=O)O[C@H]1CC[C@]2(C)[C@H]3CC=C4[C@@H]5CC(C)(C)CC[C@]5(C(=O)NCc5ccccc5)CC[C@@]4(C)[C@]3(C)CC[C@H]2[C@]1(C)C=O` [Compound 7, (3β,4α) 3-Acetyloxy-N-(benzyl)-23-oxo-olean-12-en-28-amide] had a melting point of 119 to 121 °C. In addition, the concentration giving a half-maximal response (EC50) in data set [5] (Homo sapiens, A-375, 72 h) was determined as 3300 ± 300 nM. It took 10700 ± 1800 nM to reach a half-maximal effect in data set [1] (EC50). In addition, the midpoint of the response in data set [2], the EC50, lay at 8800 ± 1600 nM. In data set [3], this compound came in with an EC50 of 4400 ± 300 nM. This compound also yielded an EC50 in data set [4] of 18.5 ± 4.6 µM.

Compound `CC(=O)OC[C@@]1(C)[C@@H]2CC[C@]3(C)[C@H](CC=C4[C@@H]5CC(C)(C)CC[C@]5(C(=O)N5CCNCC5)CC[C@]43C)[C@@]2(C)CC[C@@H]1OC(C)=O` [Compound 13, (3β,4α)3,23-Bis(acetyloxy)-N-(piperazinyl)-olean-12-en-28-amide] showed a melting point of 183 to 187 °C.

As to `CCN(CC)c1ccc2c(-c3ccccc3C(=O)N3CCCN(C(=O)[C@]45CC[C@@H](C)[C@H](C)[C@H]4C4=CC[C@@H]6[C@@]7(C)C[C@@H](OC(C)=O)[C@H](OC(C)=O)[C@@](C)(COC(C)=O)[C@@H]7[C@H](O)C[C@@]6(C)[C@]4(C)CC5)CC3)c3ccc(=[N+](CC)CC)cc-3oc2c1` (as salt: chloride) [Compound 24, N-{6-Diethylamino-9-[2-({4[ (2α,3β,4α,6β)-2,3,23-tris(acetyloxy)-6-hydroxy-28-oxours-12-en-28-yl)-1,4-diazepan-1-yl}carbonyl]phenyl]-3H-xanthen-3-ylidene)-N-ethylethanaminium Chloride], the melting point is 269 to 273 °C.

One may read the EC50 as the concentration that produces a half-maximal response. By melting point is commonly meant the temperature of the solid-liquid transition.
